Data as given in patent US20150284375A1 (AJINOMOTO CO., INC., priority 2012, published 2015).

biological target: T1, human TRPA1 (Homo sapiens, UniProt O75762); experiment: Measurement of TRPA1 antagonist activity (intracellular calcium increase, FLIPR, allylisothiocyanate stimulation); format: cell-based; conditions: allylisothiocyanate 20 μM stimulation, FLIPR calcium assay; read-out: antagonism hTRPA1
T1 construct: expressed in transfected cells; host or cells: Human embryonic kidney-derived 293T cells, transiently transfected with the pcDNA3.1/zeo(+) human TRPA1 plasmid
T1 sequence (O75762 whole entry): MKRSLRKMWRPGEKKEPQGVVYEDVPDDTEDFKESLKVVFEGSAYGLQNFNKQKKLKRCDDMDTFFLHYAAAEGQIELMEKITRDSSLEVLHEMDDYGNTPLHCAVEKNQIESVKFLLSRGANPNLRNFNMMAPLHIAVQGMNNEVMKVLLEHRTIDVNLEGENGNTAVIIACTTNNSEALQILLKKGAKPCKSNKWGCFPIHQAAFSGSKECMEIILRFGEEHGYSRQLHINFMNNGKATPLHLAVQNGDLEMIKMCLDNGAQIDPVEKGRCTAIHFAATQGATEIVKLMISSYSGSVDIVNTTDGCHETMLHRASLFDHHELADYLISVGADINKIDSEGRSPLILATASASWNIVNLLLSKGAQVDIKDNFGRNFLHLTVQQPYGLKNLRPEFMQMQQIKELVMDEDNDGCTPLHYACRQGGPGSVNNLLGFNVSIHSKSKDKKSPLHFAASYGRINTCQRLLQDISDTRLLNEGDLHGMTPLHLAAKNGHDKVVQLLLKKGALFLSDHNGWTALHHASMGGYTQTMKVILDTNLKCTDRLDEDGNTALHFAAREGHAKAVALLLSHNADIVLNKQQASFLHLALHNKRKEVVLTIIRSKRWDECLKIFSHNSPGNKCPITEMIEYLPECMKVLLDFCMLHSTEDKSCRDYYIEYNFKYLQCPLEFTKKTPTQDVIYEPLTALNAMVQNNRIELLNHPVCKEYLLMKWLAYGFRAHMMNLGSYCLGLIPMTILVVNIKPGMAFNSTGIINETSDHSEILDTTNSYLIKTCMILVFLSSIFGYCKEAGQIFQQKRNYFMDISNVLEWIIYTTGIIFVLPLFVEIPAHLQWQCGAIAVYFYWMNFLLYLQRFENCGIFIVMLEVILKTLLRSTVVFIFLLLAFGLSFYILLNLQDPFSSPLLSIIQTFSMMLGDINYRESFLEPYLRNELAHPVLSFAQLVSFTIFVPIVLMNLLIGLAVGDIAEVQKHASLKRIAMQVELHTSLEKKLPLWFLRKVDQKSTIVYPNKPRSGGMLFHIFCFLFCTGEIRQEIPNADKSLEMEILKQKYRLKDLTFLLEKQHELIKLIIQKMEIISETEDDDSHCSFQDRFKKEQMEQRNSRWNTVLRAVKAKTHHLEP
In short: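 IC50 derives from a sigmoid fit of inhibition of the 5-min FLIPR fluorescence change evoked by 20 μM allylisothiocyanate, normalized between agonist and buffer responses. Test substance, diluted in HBSS/20 mM HEPES pH 7.2 plus 0.1% BSA, was applied 10 min beforehand at room temperature to Calcium4-loaded 293T cells transiently expressing human TRPA1.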

SMILES | IC50
CN(C)c1cccc(Oc2cccc(CNC(=O)[C@@H]3CCCN3S(=O)(=O)c3ccc(F)cc3)c2)c1 [Example 116, (2S)-N-[[3-[3-(dimethylamino)phenoxy]phenyl]methyl]-1-(4-fluorophenyl)sulfonyl-pyrrolidine-2-carboxamide] | 1300 nM
CN(C)c1ccc(Oc2cccc(CNC(=O)[C@@H]3CCCN3S(=O)(=O)c3ccc(F)cc3)c2)cc1 [Example 117, (2S)-N-[[3-[4-(dimethylamino)phenoxy]phenyl]methyl]-1-(4-fluorophenyl)sulfonyl-pyrrolidine-2-carboxamide] | 9900 nM
N#Cc1ccc(Oc2cccc(CNC(=O)[C@@H]3CCCN3S(=O)(=O)c3ccc(F)cc3)c2)cc1 [Example 118, (2S)-N-[[3-(4-cyanophenoxy)phenyl]methyl]-1-(4-fluorophenyl)sulfonyl-pyrrolidine-2-carboxamide] | 270 nM
CC(C)(C)c1ccc(Oc2cccc(CNC(=O)[C@@H]3CCCN3S(=O)(=O)c3ccc(F)cc3)c2)cc1 [Example 119, (2S)-N-[[3-(4-tert-butylphenoxy)phenyl]methyl]-1-(4-fluorophenyl)sulfonyl-pyrrolidine-2-carboxamide] | 1000 nM
O=C(NCc1cccc(OCc2ccc(Cl)cc2)c1)[C@@H]1CCCN1S(=O)(=O)c1ccc(F)cc1 [Example 120, (2S)-N-[[3-[(4-chlorophenyl)methoxy]phenyl]methyl]-1-(4-fluorophenyl)sulfonyl-pyrrolidine-2-carboxamide] | 17 nM
O=C(NCc1cccc(OCc2ccc(F)cc2)c1)[C@@H]1CCCN1S(=O)(=O)c1ccc(F)cc1 [Example 121, (2S)-N-[[3-[(4-fluorophenyl)methoxy]phenyl]methyl]-1-(4-fluorophenyl)sulfonyl-pyrrolidine-2-carboxamide] | 31 nM
CC(C)(C)c1ccc(COc2cccc(CNC(=O)[C@@H]3CCCN3S(=O)(=O)c3ccc(F)cc3)c2)cc1 [Example 122] | 440 nM
O=C(NCc1cccc(OCc2cccc(C(F)(F)F)c2)c1)[C@@H]1CCCN1S(=O)(=O)c1ccc(F)cc1 [Example 123, (2S)-1-(4-fluorophenyl)sulfonyl-N-[[3-[[3-(trifluoromethyl)phenyl]methoxy]phenyl]methyl]pyrrolidine-2-carboxamide] | 25 nM
COc1cccc(COc2cccc(CNC(=O)[C@@H]3CCCN3S(=O)(=O)c3ccc(F)cc3)c2)c1 [Example 124, (2S)-1-(4-fluorophenyl)sulfonyl-N-[[3-[(3-methoxyphenyl)methoxy]phenyl]methyl]pyrrolidine-2-carboxamide] | 130 nM
CN(C)c1cccc(COc2cccc(CNC(=O)[C@@H]3CCCN3S(=O)(=O)c3ccc(F)cc3)c2)c1 [Example 125, (2S)-N-[[3-[[3-(dimethylamino)phenyl]methoxy]phenyl]methyl]-1-(4-fluorophenyl)sulfonyl-pyrrolidine-2-carboxamide] | 38 nM
O=C(NCc1cccc(OCc2cccc(N3CCCCC3)c2)c1)[C@@H]1CCCN1S(=O)(=O)c1ccc(F)cc1 [Example 126, (2S)-1-(4-fluorophenyl)sulfonyl-N-[[3-[[3-(1-piperidyl)phenyl]methoxy]phenyl]methyl]pyrrolidine-2-carboxamide] | 38 nM
O=C(NCc1cccc(OCc2cccc(N3CCOCC3)c2)c1)[C@@H]1CCCN1S(=O)(=O)c1ccc(F)cc1 [Example 127, (2S)-1-(4-fluorophenyl)sulfonyl-N-[[3-[(3-morpholinophenyl)methoxy]phenyl]methyl]pyrrolidine-2-carboxamide] | 130 nM
O=C(NCc1cccc(OCc2ccccc2F)c1)[C@@H]1CCCN1S(=O)(=O)c1ccc(F)cc1 [Example 128, (2S)-N-[[3-[(2-fluorophenyl)methoxy]phenyl]methyl]-1-(4-fluorophenyl)sulfonyl-pyrrolidine-2-carboxamide] | 120 nM
CN(C)c1ccccc1COc1cccc(CNC(=O)[C@@H]2CCCN2S(=O)(=O)c2ccc(F)cc2)c1 [Example 129, (2S)-N-[[3-[[2-(dimethylamino)phenyl]methoxy]phenyl]methyl]-1-(4-fluorophenyl)sulfonyl-pyrrolidine-2-carboxamide] | 640 nM
O=C(NCc1cccc(OCc2ccc(F)c(F)c2)c1)[C@@H]1CCCN1S(=O)(=O)c1ccc(F)cc1 [Example 130, (2S)-N-[[3-[(3,4-difluorophenyl)methoxy]phenyl]methyl]-1-(4-fluorophenyl)sulfonyl-pyrrolidine-2-carboxamide] | 20 nM
O=C(NCc1cccc(OCc2ccc(Cl)c(F)c2)c1)[C@@H]1CCCN1S(=O)(=O)c1ccc(F)cc1 [Example 131, (2S)-N-[[3-[(4-chloro-3-fluoro-phenyl)methoxy]phenyl]methyl]-1-(4-fluorophenyl)sulfonyl-pyrrolidine-2-carboxamide] | 14 nM
O=C(NCc1cccc(OCc2cccnc2)c1)[C@@H]1CCCN1S(=O)(=O)c1ccc(F)cc1 [Example 132, (2S)-1-(4-fluorophenyl)sulfonyl-N-[[3-(3-pyridylmethoxy)phenyl]methyl]pyrrolidine-2-carboxamide] | 2600 nM

SMILES | IC50
O=C(NCc1cccc(OCc2ccncc2)c1)[C@@H]1CCCN1S(=O)(=O)c1ccc(F)cc1 [Example 133, (2S)-1-(4-fluorophenyl)sulfonyl-N-[[3-(4-pyridylmethoxy)phenyl]methyl]pyrrolidine-2-carboxamide] | 4400 nM
O=C(NCc1cccc(OCc2ccc(C(F)(F)F)nc2)c1)[C@@H]1CCCN1S(=O)(=O)c1ccc(F)cc1 [Example 134, (2S)-1-(4-fluorophenyl)sulfonyl-N-[[3-[[6-(trifluoromethyl)-3-pyridyl]methoxy]phenyl]methyl]pyrrolidine-2-carboxamide] | 38 nM
O=C(NCc1cccc(OCc2ccnc(C(F)(F)F)c2)c1)[C@@H]1CCCN1S(=O)(=O)c1ccc(F)cc1 [Example 135, (2S)-1-(4-fluorophenyl)sulfonyl-N-[[3-[[2-(trifluoromethyl)-4-pyridyl]methoxy]phenyl]methyl]pyrrolidine-2-carboxamide] | 67 nM
O=C(NCc1cccc(OCc2cccc(C(F)(F)F)n2)c1)[C@@H]1CCCN1S(=O)(=O)c1ccc(F)cc1 [Example 136, (2S)-1-(4-fluorophenyl)sulfonyl-N-[[3-[[6-(trifluoromethyl)-2-pyridyl]methoxy]phenyl]methyl]pyrrolidine-2-carboxamide] | 140 nM
O=C(NCc1cccc(OCc2cncc(C(F)(F)F)c2)c1)[C@@H]1CCCN1S(=O)(=O)c1ccc(F)cc1 [Example 137, (2S)-1-(4-fluorophenyl)sulfonyl-N-[[3-[[5-(trifluoromethyl)-3-pyridyl]methoxy]phenyl]methyl]pyrrolidine-2-carboxamide] | 44 nM
O=C(NCc1cccc(OCc2cncc(Cl)c2)c1)[C@@H]1CCCN1S(=O)(=O)c1ccc(F)cc1 [Example 138, (2S)-N-[[3-[(5-chloro-3-pyridyl)methoxy]phenyl]methyl]-1-(4-fluorophenyl)sulfonyl-pyrrolidine-2-carboxamide] | 110 nM
O=C(NCc1cccc(OCc2ccoc2)c1)[C@@H]1CCCN1S(=O)(=O)c1ccc(F)cc1 [Example 139, (2S)-1-(4-fluorophenyl)sulfonyl-N-[[3-(3-furylmethoxy)phenyl]methyl]pyrrolidine-2-carboxamide] | 290 nM
O=C(NCc1cccc(OCc2ccco2)c1)[C@@H]1CCCN1S(=O)(=O)c1ccc(F)cc1 [Example 140, (2S)-1-(4-fluorophenyl)sulfonyl-N-[[3-(2-furylmethoxy)phenyl]methyl]pyrrolidine-2-carboxamide] | 330 nM
O=C(NCc1cccc(OCc2ccsc2)c1)[C@@H]1CCCN1S(=O)(=O)c1ccc(F)cc1 [Example 141, (2S)-1-(4-fluorophenyl)sulfonyl-N-[[3-(3-thienylmethoxy)phenyl]methyl]pyrrolidine-2-carboxamide] | 89 nM
O=C(NCc1cccc(OCc2cccs2)c1)[C@@H]1CCCN1S(=O)(=O)c1ccc(F)cc1 [Example 142, (2S)-1-(4-fluorophenyl)sulfonyl-N-[[3-(2-thienylmethoxy)phenyl]methyl]pyrrolidine-2-carboxamide] | 110 nM
C[C@H](Oc1cccc(CNC(=O)[C@@H]2CCCN2S(=O)(=O)c2ccc(F)cc2)c1)c1ccccc1 [Example 144, (2S)-1-(4-fluorophenyl)sulfonyl-N-[[3-[(1S)-1-phenylethoxy]phenyl]methyl]pyrrolidine-2-carboxamide] | 550 nM
C[C@@H](Oc1cccc(CNC(=O)[C@@H]2CCCN2S(=O)(=O)c2ccc(F)cc2)c1)c1ccccn1 [Example 146, (2S)-1-(4-fluorophenyl)sulfonyl-N-[[3-[(1R)-1-(2-pyridyl)ethoxy]phenyl]methyl]pyrrolidine-2-carboxamide] | 9800 nM
C[C@H](Oc1cccc(CNC(=O)[C@@H]2CCCN2S(=O)(=O)c2ccc(F)cc2)c1)c1ccccn1 [Example 147, (2S)-1-(4-fluorophenyl)sulfonyl-N-[[3-[(1S)-1-(2-pyridyl)ethoxy]phenyl]methyl]pyrrolidine-2-carboxamide] | 8300 nM
O=C(NCc1cccc(OCCc2ccccc2)c1)[C@@H]1CCCN1S(=O)(=O)c1ccc(F)cc1 [Example 148, (2S)-1-(4-fluorophenyl)sulfonyl-N-[(3-phenethyloxyphenyl)methyl]pyrrolidine-2-carboxamide] | 340 nM
O=C(NCc1cccc(OCc2ccc(C(F)(F)F)nc2)c1)[C@@H]1CCCN1S(=O)(=O)c1ccco1 [Example 149, (2S)-1-(2-furylsulfonyl)-N-[[3-[[6-(trifluoromethyl)-3-pyridyl]methoxy]phenyl]methyl]pyrrolidine-2-carboxamide] | 240 nM
O=C(NCc1cccc(OCc2ccnc(C(F)(F)F)c2)c1)[C@@H]1CCCN1S(=O)(=O)c1ccco1 [Example 150, (2S)-1-(2-furylsulfonyl)-N-[[3-[[2-(trifluoromethyl)-4-pyridyl]methoxy]phenyl]methyl]pyrrolidine-2-carboxamide] | 110 nM
